Data set [1] concerns HuT 78 cell adhesion to 5dICAM-Ig. Put plainly: Human T-cell adhesion assay (HuT 78). The data set is classed as cell-based. Conditions: HuT78, HuT 78 adhesion to 5dICAM-Ig. On the procedure:
The T-cell adhesion assay was performed using the human T-lymphoid cell line HuT 78 (ATCC TIB-161). Goat anti-HuIgG(Fc) was diluted to 2 μg/ml in PBS and 96-well plates were coated with 50 μl/well at 37° C. for 1 h. Plates were washed with PBS and blocked for 1 h at room temperature with 1% BSA in PBS. 5 domain ICAM-Ig was diluted to 100 ng/ml in PBS and 50 μl/well was added to the plates 0/N at 4° C. HuT 78 cells were centrifuged at 100 g and the cell pellet was treated with 5 mM EDTA for ˜5′ at 37° C. in a 5% CO2 incubator. Cells were washed in 0.14 M NaCl, 0.02 M Hepes, 0.2% glucose and 0.1 mM MnCl2 (assay buffer) and centrifuged. The cells were resuspended in assay buffer to 3.0×10^6 c/ml. Inhibitors were diluted in assay buffer to a 2× final concentration and pre-incubated with HuT78 cells for 30′ at room temperature. 100 μl/well of cells and inhibitors were added to the plates and incubated at room temperature for 1 h. 100 μl/well PBS was added and the plates were sealed and centrifuged inverted at 100 g for 5′. Unattached cells were flicked out of the plate and excess PBS was blotted on a paper towel. 60 μl/well p-nitrophenyl n-acetyl-β-D-glucosaminide (0.257 g to 100 ml citrate buffer) was added to the plate and incubated for 1.5 h at 37° C. The enzyme reaction was stopped with 90 μI/well 50 mM glycine/5 mM EDTA and read on a platereader at […]. HUT 78 cell adhesion to 5dICAM-Ig was measured using the p-nitrophenyl n-acetyl-.β-D-glucosaminide method of Landegren, U. (1984). J. Immunol. Methods 57, 379-388.

A further data set is described as follows: Solubility. The data set is classed as physicochemical.
Data set [2] relates to human mononucleocytes (PBMC) stimulated with staphylococcal enterotoxin B (SEB). In words: cells. The data set is classed as cell-based.
The target in a further data set is LFA-1 (Homo sapiens, UniProt P20701). The settings on record: Lu et al. 2004; cited from earlier work.

Like-named read-outs stand apart in the source and are kept apart here.

Sequence of LFA-1 (P20701 26-1170): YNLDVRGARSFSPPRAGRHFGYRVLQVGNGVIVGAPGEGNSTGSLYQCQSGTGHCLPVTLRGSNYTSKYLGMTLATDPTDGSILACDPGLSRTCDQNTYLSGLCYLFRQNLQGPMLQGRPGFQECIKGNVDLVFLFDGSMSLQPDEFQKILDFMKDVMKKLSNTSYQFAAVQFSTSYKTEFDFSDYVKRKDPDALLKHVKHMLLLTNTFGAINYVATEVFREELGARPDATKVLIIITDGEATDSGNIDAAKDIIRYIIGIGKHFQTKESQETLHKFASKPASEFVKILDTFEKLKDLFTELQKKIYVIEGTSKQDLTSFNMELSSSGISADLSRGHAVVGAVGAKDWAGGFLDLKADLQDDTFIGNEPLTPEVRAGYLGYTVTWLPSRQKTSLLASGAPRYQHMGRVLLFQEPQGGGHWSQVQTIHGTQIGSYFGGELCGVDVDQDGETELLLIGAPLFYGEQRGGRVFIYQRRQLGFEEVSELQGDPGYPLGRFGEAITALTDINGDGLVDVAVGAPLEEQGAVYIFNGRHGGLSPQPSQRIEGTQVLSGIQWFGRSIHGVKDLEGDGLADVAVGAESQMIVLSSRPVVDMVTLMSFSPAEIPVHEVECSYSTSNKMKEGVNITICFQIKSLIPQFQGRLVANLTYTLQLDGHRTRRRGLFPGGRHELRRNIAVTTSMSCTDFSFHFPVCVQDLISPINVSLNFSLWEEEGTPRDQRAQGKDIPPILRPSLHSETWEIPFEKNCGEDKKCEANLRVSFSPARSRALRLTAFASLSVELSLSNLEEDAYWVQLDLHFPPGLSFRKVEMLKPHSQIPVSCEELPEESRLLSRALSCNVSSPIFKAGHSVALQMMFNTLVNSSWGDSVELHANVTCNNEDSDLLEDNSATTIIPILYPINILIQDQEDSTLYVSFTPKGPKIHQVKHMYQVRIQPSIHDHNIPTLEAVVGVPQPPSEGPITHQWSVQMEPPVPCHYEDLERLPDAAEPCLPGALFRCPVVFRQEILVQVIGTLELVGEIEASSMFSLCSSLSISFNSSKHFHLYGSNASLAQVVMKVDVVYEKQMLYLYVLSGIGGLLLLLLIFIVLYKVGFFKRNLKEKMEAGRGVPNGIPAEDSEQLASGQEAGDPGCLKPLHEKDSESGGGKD
Sequence of LFA-1 (P05107 23-769 partner): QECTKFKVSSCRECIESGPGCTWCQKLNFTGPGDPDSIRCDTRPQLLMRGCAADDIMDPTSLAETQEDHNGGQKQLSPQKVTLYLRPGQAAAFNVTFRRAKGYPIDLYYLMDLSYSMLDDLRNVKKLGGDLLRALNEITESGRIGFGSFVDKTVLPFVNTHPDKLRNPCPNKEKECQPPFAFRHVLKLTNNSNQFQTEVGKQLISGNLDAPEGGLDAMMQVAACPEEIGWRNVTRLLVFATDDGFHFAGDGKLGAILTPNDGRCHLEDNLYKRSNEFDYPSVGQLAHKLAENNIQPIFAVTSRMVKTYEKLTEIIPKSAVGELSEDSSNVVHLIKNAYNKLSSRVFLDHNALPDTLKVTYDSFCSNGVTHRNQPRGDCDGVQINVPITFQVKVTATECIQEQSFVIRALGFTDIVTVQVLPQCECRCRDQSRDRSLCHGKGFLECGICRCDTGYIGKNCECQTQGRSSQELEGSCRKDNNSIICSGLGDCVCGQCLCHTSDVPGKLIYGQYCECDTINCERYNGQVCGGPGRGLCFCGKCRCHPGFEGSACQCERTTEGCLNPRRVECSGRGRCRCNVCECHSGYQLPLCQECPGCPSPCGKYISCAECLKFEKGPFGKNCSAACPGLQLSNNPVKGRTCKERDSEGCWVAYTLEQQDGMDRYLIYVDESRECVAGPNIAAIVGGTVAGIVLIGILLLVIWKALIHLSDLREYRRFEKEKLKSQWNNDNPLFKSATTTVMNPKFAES

One may read the EC50 as the midpoint of the concentration-response curve. One may read the solubility as the dissolved amount per volume that the medium holds. In data set [1], `CS(=O)(=O)NCCC[C@H](NC(=O)c1c(Cl)cc2c(c1Cl)CCN(C(=O)c1ccc3ccoc3c1)C2)C(=O)O` [Compound 44] yielded an EC50 of at most 0.05 µM. Moreover, the solubility in the data set “Solubility” is over 100 mg/mL.

For the compound `O=C(NC[C@H](NC(=O)c1c(Cl)cc2c(c1Cl)CCN(C(=O)/C=C/c1ccco1)C2)C(=O)O)c1cccs1` [Compound 45], the concentration for a half-maximal effect (EC50) in data set [1] is at most 0.05 µM. In addition, the solubility in “Solubility” was over 100 mg/mL.

For `CS(=O)(=O)c1cccc(C[C@H](NC(=O)c2c(Cl)cccc2Cl)C(=O)O)c1` [Compound 46], the EC50 in data set [1] was at most 0.1 µM. In addition, the solubility in “Solubility” is over 100 mg/mL.

Consider `O=C(NC(Cc1cc(=O)[nH]c2ccccc12)C(=O)O)c1ccc(Cl)cc1` (centres unmarked) [Rebamipide], for which the 50% effective concentration (EC50) in data set [2] (read-out: EC50 Cytokine Release GM-CSF), in data set [2] (read-out: EC50 Cytokine Release IFNγ), in data set [2] (read-out: EC50 Cytokine Release IL-1α), in data set [2] (read-out: EC50 Cytokine Release IL-1β), in data set [2] (read-out: EC50 Cytokine Release IL-2) and in data set [2] (read-out: EC50 Cytokine Release IL-3) was over 1000 µM each time. The 50% effective concentration (EC50) in data set [2] (read-out: EC50 Cytokine Release IL-4), in data set [2] (read-out: EC50 Cytokine Release IL-5), in data set [2] (read-out: EC50 Cytokine Release IL-6), in data set [2] (read-out: EC50 Cytokine Release IL-10), in data set [2] (read-out: EC50 Cytokine Release IL-12p40) and in data set [2] (read-out: EC50 Cytokine Release IL-13) was over 1000 µM in each case. Moreover, the EC50 in data set [2] (read-out: EC50 Cytokine Release IP-10), in data set [2] (read-out: EC50 Cytokine Release MCP-1), in data set [2] (read-out: EC50 Cytokine Release MIP-1α) and in data set [2] (read-out: EC50 Cytokine Release TNF-α) was over 1000 µM each time.

Turning to “efalizumab: antibody directed against LFA-1”, the “Mode of antagonism of LFA-1” value with LFA-1 is on record as “directly competitive antagonist of LFA-1”.

These data come from patent publication US10960087B2, “Compositions and methods for treatment of diabetic retinopathy” (NOVARTIS AG, priority 2007, dated 2021).
